The source of these data is patent US7739055B2, “Methods and systems for generating and evaluating peptides” (priority 2005, dated 2010).

Where a SMILES comes first, the peptide text is derived from it.

The assay concerns B. cereus.

In the case of `CC[C@H](C)[C@H](NC(=O)[C@H](CC(C)C)NC(=O)[C@H](C)NC(=O)[C@@H]1CCCN1C(=O)[C@H](C)NC(=O)[C@@H](NC(=O)[C@H](CCCCN)NC(=O)[C@@H](N)CCCNC(=N)N)C(C)C)C(=O)N[C@@H](CCCCN)C(=O)N[C@@H](CO)C(=O)N[C@@H](Cc1ccccc1)C(=O)N[C@H](C(=O)N[C@@H](Cc1ccccc1)C(=O)N[C@@H](CC(C)C)C(=O)N[C@@H](Cc1ccccc1)C(=O)N[C@@H](CCCCN)C(=O)N[C@@H](Cc1ccccc1)C(=O)N[C@@H](CCCCN)C(=O)N[C@@H](CCCCN)C(=O)NCC(=O)O)C(C)C` [Shuffled 51] (H-RKVAPALIKSFVFLFKFKKG-OH; N-terminus and C-terminus assumed), the “MIC B. cereus” value is on record as “+ (key: +: MIC greater than 256 ug/mL; ++: MIC greater than 128 ug/mL, not sufficiently soluble to test as 256 ug/mL)”.
